Experimental data published in patent US20250154554A1, “ANTIMICROBIAL SUSCEPTIBILITY” (priority 2022, published 2025).
Like-named read-outs stand apart in the source and are kept apart here.

How the values were obtained:
K. pneumoniae = assay: MIC of strains giving very major errors (VME); assay type: cell-based
E. coli = assay: MIC of strains giving very major errors (VME); assay type: cell-based
[1] = test system: Gram-negative bacteria (Enterobacterales, Pseudomonas, Acinetobacter); details: for RM I (strains intermediate by reference method) / RM R (strains resistant by reference method) / RM S (strains susceptible by reference method): total of 3 sites, blood cultures; for CLSI RM I / EUCAST RM I: number of strains I; for CLSI RM R / EUCAST RM R: number of strains resistant; for CLSI RM S / EUCAST RM S: number of strains susceptible
[2] = test system: Gram-positive bacteria (Staphylococcus spp, Enterococcus spp); assay: Reference method (RM): disk diffusion and/or broth microdilution, S/I/R classification, Gram-positive strains; assay type: cell-based; details: for CLSI RM R / EUCAST RM R: number of strains resistant; for CLSI RM S / EUCAST RM S: number of strains susceptible;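 on all read-outs here: susceptibility categories assigned with the latest EUCAST breakpoint tables or CLSI M100 29th edition breakpoints, with quality control of the reference methods following EUCAST and CLSI guidance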
K. aerogenes = assay: MIC of strains giving very major errors (VME); assay type: cell-based; details: Klebsiella aerogenes, strain EB 069, site 2
E. cloacae = assay: MIC of strains giving very major errors (VME); assay type: cell-based; details: Enterobacter cloacae, strain EB 1168, site 1
Staphylococcus aureus = assay: Vancomycin MIC by FASTgrampos kit versus broth microdilution (reference method); assay type: cell-based
[3] = Klebsiella pneumoniae, strain EB 033, site 2, read-out: MIC
[4] = CLSI, FASTinov, Porto, spiked on blood cultures
[5] = CLSI, Hospital Ramon et Cajal, Madrid, patients' blood cultures
[6] = CLSI, Hospital S. João, Porto, patients' blood cultures
[7] = EUCAST, FASTinov, Porto, spiked on blood cultures
[8] = EUCAST, Hospital Ramon et Cajal, Madrid, patients' blood cultures
[9] = EUCAST, Hospital S. João, Porto, patients' blood cultures
[10] = CLSI, FASTinov, Porto, spiked blood cultures
[11] = CLSI, total of 3 sites, blood cultures
[12] = EUCAST, FASTinov, Porto, spiked blood cultures
[13] = EUCAST, total of 3 sites, blood cultures
[14] = CLSI, Hospital Ramon et Cajal, Madrid, patients blood cultures
[15] = EUCAST, Hospital Ramon et Cajal, Madrid, patients blood cultures

Molecule | RM I (strains intermediate by reference method) ([1]; CLSI) | RM R (strains resistant by reference method) ([1]; CLSI) | RM S (strains susceptible by reference method) ([1]; CLSI) | RM R (strains resistant by reference method) ([1]; EUCAST) | RM S (strains susceptible by reference method) ([1]; EUCAST) | CLSI RM R [1, 4] | RM R (strains resistant by reference method) [2, 10] | RM S (strains susceptible by reference method) [2, 10] | RM R (strains resistant by reference method) [2, 11] | RM S (strains susceptible by reference method) [2, 11] | RM R (strains resistant by reference method) [2, 12] | RM S (strains susceptible by reference method) [2, 12] | RM R (strains resistant by reference method) [2, 13] | RM S (strains susceptible by reference method) [2, 13] | CLSI RM R [2, 6] | EUCAST RM R [2, 9] | CLSI RM S [2, 14] | CLSI RM S [2, 6] | EUCAST RM S [2, 15] | EUCAST RM S [2, 9] | also measured
CO/N=C(\C(=O)N[C@@H]1C(=O)N2C(C(=O)[O-])=C(C[N+]3(C)CCCC3)CS[C@H]12)c1csc(N)n1 [Cefepime] |  |  |  |  |  |  |  |  |  |  |  |  |  |  |  |  |  |  |  |  | MIC (K. pneumoniae; [3]): 32 µg/mL; MIC (E. coli; Escherichia coli, strain EB 022, site 2, read-out: MIC): 4 µg/mL; MIC (E. coli; Escherichia coli, strain EB 052, site 2, read-out: MIC): 64 µg/mL
Gentamicin | 6 | 77 | 262 | 69 | 194 | 60 | 15 | 51 | 54 | 147 | 29 | 37 | 70 | 131 | 24 | 24 | 28 | 68 | 26 | 68 | CLSI RM I [1, 4]: 3; CLSI RM I [1, 5]: 1; CLSI RM I [1, 6]: 2; CLSI RM R [1, 5]: 9; CLSI RM R [1, 6]: 8; EUCAST RM R [1, 7]: 47; EUCAST RM R [1, 8]: 10; EUCAST RM R [1, 9]: 12; CLSI RM S [1, 4]: 120; CLSI RM S [1, 5]: 70; CLSI RM S [1, 6]: 72; EUCAST RM S [1, 7]: 64; EUCAST RM S [1, 8]: 65; EUCAST RM S [1, 9]: 65; MIC (E. coli; strain EB 286, site 3): 8 µg/mL; CLSI RM R [2, 14]: 15; EUCAST RM R [2, 15]: 17
CC1(C)S[C@@H]2[C@H](NC(=O)[C@H](N)c3ccccc3)C(=O)N2[C@H]1C(=O)O [Ampicillin] | 1 | 164 | 66 | 165 | 66 | 67 | 23 | 42 | 38 | 61 | 23 | 42 | 38 | 59 | 5 | 5 | 12 | 7 | 10 | 7 | CLSI RM I [1, 5]: 1; CLSI RM R [1, 5]: 53; CLSI RM R [1, 6]: 44; EUCAST RM R [1, 7]: 67; EUCAST RM R [1, 8]: 54; EUCAST RM R [1, 9]: 44; CLSI RM S [1, 4]: 14; CLSI RM S [1, 5]: 20; CLSI RM S [1, 6]: 32; EUCAST RM S [1, 7]: 14; EUCAST RM S [1, 8]: 20; EUCAST RM S [1, 9]: 32; RM I (strains intermediate by reference method) [2, 13]: 2; EUCAST RM I ([2]; number of strains I, EUCAST, Hospital Ramon et Cajal, Madrid, patients blood cultures): 2; CLSI RM R [2, 14]: 10; EUCAST RM R [2, 15]: 10
Ceftolozane-tazobactam | 5 | 40 | 267 | 45 | 267 | 37 |  |  |  |  |  |  |  |  |  |  |  |  |  |  | MIC (K. pneumoniae; strain EB 032, site 3): 4 µg/mL; MIC (K. pneumoniae; strain EB 101, site 1): >32 µg/mL; MIC (K. pneumoniae; strain EB 677, site 1): 16 µg/mL; MIC (K. pneumoniae; strain EB 679, site 1): >32 µg/mL; CLSI RM I [1, 4]: 4; CLSI RM I [1, 6]: 1; CLSI RM R [1, 5]: 3; EUCAST RM R [1, 7]: 41; EUCAST RM R [1, 8]: 3; EUCAST RM R [1, 9]: 1; CLSI RM S [1, 4]: 112; CLSI RM S [1, 5]: 75; CLSI RM S [1, 6]: 80; EUCAST RM S [1, 7]: 112; EUCAST RM S [1, 8]: 75; EUCAST RM S [1, 9]: 80
CC(C)(O/N=C(\C(=O)N[C@@H]1C(=O)N2C(C(=O)[O-])=C(C[n+]3ccccc3)CS[C@H]12)c1csc(N)n1)C(=O)O [Ceftazidime] | 4 | 115 | 194 | 119 | 159 | 94 |  |  |  |  |  |  |  |  |  |  |  |  |  |  | MIC (K. pneumoniae; [3]): 32 µg/mL; RM I (strains intermediate by reference method) ([1]; EUCAST): 34; CLSI RM I [1, 4]: 3; CLSI RM I [1, 5]: 1; EUCAST RM I [1, 7]: 29; EUCAST RM I [1, 8]: 3; EUCAST RM I [1, 9]: 2; CLSI RM R [1, 5]: 13; CLSI RM R [1, 6]: 8; EUCAST RM R [1, 7]: 98; EUCAST RM R [1, 8]: 15; EUCAST RM R [1, 9]: 6; CLSI RM S [1, 4]: 56; CLSI RM S [1, 5]: 64; CLSI RM S [1, 6]: 74; EUCAST RM S [1, 7]: 26; EUCAST RM S [1, 8]: 60; EUCAST RM S [1, 9]: 73; MIC (K. aerogenes): 16 µg/mL; MIC (E. cloacae): 32 µg/mL
CO[C@@]1(NC(=O)Cc2cccs2)C(=O)N2C(C(=O)O)=C(COC(N)=O)CS[C@@H]21 [Cefoxitin] |  |  |  |  |  |  | 17 | 26 | 52 | 48 | 17 | 26 | 52 | 48 | 26 | 26 | 13 | 9 | 13 | 9 | CLSI RM R [2, 14]: 9; EUCAST RM R [2, 15]: 9
CC(=O)NC[C@H]1CN(c2ccc(N3CCOCC3)c(F)c2)C(=O)O1 [Linezolid] |  |  |  |  |  |  | 3 | 128 | 5 | 298 | 3 | 128 | 5 | 298 | 2 | 2 | 68 | 102 | 68 | 102 | 
CN[C@H](CC(C)C)C(=O)N[C@H]1C(=O)N[C@@H](CC(N)=O)C(=O)N[C@H]2C(=O)N[C@H]3C(=O)N[C@H](C(=O)N[C@H](C(=O)O)c4cc(O)cc(O)c4-c4cc3ccc4O)[C@H](O)c3ccc(c(Cl)c3)Oc3cc2cc(c3O[C@@H]2O[C@H](CO)[C@@H](O)[C@H](O)[C@H]2O[C@H]2C[C@](C)(N)[C@H](O)[C@H](C)O2)Oc2ccc(cc2Cl)[C@H]1O [Vancomycin] |  |  |  |  |  |  | 7 | 100 | 8 | 254 | 10 | 100 | 11 | 254 | 1 | 1 | 56 | 98 | 56 | 98 | number of S. aureus strains in MIC distribution (Staphylococcus aureus; MIC by FASTgrampos 0.25 mg/L, MIC by microdilution 0.25 mg/L): 2; number of S. aureus strains in MIC distribution (Staphylococcus aureus; MIC by FASTgrampos 0.25 mg/L, MIC by microdilution 0.5 mg/L): 15; number of S. aureus strains in MIC distribution (Staphylococcus aureus; MIC by FASTgrampos 0.5 mg/L, MIC by microdilution 0.5 mg/L): 21; number of S. aureus strains in MIC distribution (Staphylococcus aureus; MIC by FASTgrampos 0.5 mg/L, MIC by microdilution 1 mg/L): 10; number of S. aureus strains in MIC distribution (Staphylococcus aureus; MIC by FASTgrampos 1 mg/L, MIC by microdilution 0.5 mg/L): 3; number of S. aureus strains in MIC distribution (Staphylococcus aureus; MIC by FASTgrampos 1 mg/L, MIC by microdilution 1 mg/L): 7; number of S. aureus strains in MIC distribution (Staphylococcus aureus; MIC by FASTgrampos 2 mg/L, MIC by microdilution 1 mg/L): 3; number of S. aureus strains in MIC distribution (Staphylococcus aureus; MIC by FASTgrampos 2 mg/L, MIC by microdilution 2 mg/L): 2; RM I (strains intermediate by reference method) [2, 10]: 3; RM I (strains intermediate by reference method) [2, 11]: 3
